# Legend:
# HL-60 = assay: Cytotoxicity against human HL60 cells; type: functional, cell-based
# WRL68 = assay: Cytotoxicity against human WRL68 cells; type: cell-based
# HepG2 = assay: Cytotoxicity against human HepG2 cells; type: functional, cell-based
Structure (SMILES),IC50 (HL-60) [µM],IC50 (WRL68) [µM],IC50 (HepG2) [µM]
CCCCCO[C@@H]1C=C(COC(C)=O)C(=O)[C@H](O)[C@H]1O,2.6,48.3,10.1
OCC1=C[C@H](O)[C@H](O)[C@@H](O)[C@@H]1O [STREPTOL],> 50,> 200,> 50
CC(=O)OCC1=C[C@H](OCc2ccc(-c3ccccc3)cc2)[C@H](O)[C@@H](O)C1=O,–,71.3,–
CCCCCCCO[C@H]1C=C(COC(C)=O)C(=O)[C@H](O)[C@H]1O,39.8,152,> 50
CC(=O)OCC1=C[C@H](OCc2ccc3ccccc3c2)[C@H](O)[C@@H](O)C1=O,> 50,> 200,> 50
CCCCCO[C@H]1C=C(COC(C)=O)C(=O)[C@H](O)[C@H]1O,3.1,169,16.1
CCCO[C@H]1C=C(COC(C)=O)C(=O)[C@H](O)[C@H]1O,10.1,191,33.6
CO[C@H]1C=C(COC(C)=O)C(=O)[C@H](O)[C@H]1O,> 50,> 200,> 50

# Reference: ChEMBL document CHEMBL2203172, “Synthesis of chiral hydroxylated enones as potential anti-tumor agents” (Bioorg Med Chem Lett, 2012)
